The values below come from patent US20200199136A1, “PIKFYVE KINASE INHIBITORS” (ACURASTEM INC., priority 2017, published 2020).

SMILES strings stand for the structures.

Chain of PIKFYVE (Q9Y2I7 whole entry): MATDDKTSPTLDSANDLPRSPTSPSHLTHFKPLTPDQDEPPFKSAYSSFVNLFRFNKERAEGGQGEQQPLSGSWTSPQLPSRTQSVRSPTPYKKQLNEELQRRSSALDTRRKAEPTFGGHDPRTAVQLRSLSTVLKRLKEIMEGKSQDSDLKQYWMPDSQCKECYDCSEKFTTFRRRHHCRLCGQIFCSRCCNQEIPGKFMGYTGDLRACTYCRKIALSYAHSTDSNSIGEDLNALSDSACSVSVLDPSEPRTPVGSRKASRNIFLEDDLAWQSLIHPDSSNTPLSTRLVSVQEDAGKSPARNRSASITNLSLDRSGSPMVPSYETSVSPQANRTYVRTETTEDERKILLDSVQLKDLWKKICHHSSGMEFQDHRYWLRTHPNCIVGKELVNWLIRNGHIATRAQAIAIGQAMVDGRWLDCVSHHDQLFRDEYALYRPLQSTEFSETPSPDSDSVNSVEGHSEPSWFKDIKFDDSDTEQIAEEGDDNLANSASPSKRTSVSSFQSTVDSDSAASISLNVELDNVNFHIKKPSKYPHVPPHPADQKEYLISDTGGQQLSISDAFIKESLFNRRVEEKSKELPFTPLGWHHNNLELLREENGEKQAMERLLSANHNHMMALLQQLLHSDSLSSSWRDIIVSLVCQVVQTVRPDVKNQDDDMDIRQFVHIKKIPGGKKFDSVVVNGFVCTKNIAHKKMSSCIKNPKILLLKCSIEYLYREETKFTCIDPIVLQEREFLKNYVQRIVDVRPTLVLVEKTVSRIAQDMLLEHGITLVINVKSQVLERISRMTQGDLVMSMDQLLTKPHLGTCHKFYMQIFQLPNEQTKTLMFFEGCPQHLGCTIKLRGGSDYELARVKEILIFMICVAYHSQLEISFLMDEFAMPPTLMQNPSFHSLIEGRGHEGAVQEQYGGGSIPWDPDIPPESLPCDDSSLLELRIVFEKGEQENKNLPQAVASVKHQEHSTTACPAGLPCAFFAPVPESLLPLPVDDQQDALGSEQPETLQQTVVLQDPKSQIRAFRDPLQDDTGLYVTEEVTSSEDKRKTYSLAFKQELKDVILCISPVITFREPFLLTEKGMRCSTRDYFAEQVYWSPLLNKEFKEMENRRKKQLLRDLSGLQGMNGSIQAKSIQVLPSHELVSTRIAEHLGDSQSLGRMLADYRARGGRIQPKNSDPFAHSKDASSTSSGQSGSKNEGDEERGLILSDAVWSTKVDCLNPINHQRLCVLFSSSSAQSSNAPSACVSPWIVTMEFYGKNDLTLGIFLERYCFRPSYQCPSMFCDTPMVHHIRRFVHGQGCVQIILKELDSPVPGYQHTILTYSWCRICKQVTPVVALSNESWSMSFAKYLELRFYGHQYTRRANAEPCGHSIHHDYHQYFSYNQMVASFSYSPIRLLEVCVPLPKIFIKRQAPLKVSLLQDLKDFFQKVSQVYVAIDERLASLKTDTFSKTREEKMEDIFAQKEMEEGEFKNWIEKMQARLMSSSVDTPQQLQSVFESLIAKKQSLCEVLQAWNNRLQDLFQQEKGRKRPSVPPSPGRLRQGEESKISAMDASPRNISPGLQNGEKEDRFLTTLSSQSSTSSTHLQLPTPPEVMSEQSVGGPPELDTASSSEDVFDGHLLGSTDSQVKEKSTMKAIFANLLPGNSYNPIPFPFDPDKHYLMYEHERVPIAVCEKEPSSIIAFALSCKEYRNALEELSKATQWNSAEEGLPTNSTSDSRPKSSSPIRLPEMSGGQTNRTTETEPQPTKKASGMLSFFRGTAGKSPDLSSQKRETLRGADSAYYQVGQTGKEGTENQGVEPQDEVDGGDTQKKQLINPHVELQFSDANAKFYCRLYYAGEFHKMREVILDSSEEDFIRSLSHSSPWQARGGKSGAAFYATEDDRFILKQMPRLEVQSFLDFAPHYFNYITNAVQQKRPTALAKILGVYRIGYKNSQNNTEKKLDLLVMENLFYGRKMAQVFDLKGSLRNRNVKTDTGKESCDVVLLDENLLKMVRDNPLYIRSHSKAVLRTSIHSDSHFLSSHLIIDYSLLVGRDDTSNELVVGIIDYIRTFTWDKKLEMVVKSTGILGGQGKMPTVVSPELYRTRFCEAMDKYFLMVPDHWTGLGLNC

The test addresses PIKFYVE (Homo sapiens, UniProt Q9Y2I7). The test is described as follows: PIKFYVE assay (luciferase ADP-Glo kinase assay, Promega). The format is biochemical. The procedure:
The activity of Compounds 1-20 was measured using a PIKFYVE assay (luciferase ADP-Glo kinase assay available from Promega Corp. of Madison, Wis.).
As to `COc1cccc(-c2ccn(-c3cc(N4CC[C@H]5OCC[C@H]54)nc(OCC4CCCO4)n3)n2)c1` (stereo partly drawn) [Compound 1, (3aR,6aR)-4-(6-(3-(3-methoxyphenyl)-1H-pyrazol-1-yl)-2-((tetrahydrofuran-2-yl)methoxy)pyrimidin-4-yl)hexahydro-2H-furo[3,2-b]pyrrole], the IC50 – broadly, the concentration needed to halve the response being measured – was in the range of 5 to 100 nM.
Take `COc1cccc(-c2ccn(-c3cc(N4CCOCC4)nc(OCC4CCCO4)n3)n2)c1` (stereo not shown) [Compound 2, 4-(6-(3-(3-methoxyphenyl)-1H-pyrazol-1-yl)-2-((tetrahydrofuran-2-yl)methoxy)pyrimidin-4-yl)morpholine]: the IC50 was less than 5 nM.
In turn, `COc1cccc(-c2ccn(-c3cc(N4CCOCC4)nc(OCCC4CCOCC4)n3)n2)c1` [Compound 3, 4-(6-(3-(3-methoxyphenyl)-1H-pyrazol-1-yl)-2-(2-(tetrahydro-2H-pyran-4-yl)ethoxy)pyrimidin-4-yl)morpholine] returned an IC50 of less than 5 nM.
Take `c1ccc(-c2ccn(-c3cc(N4CC[C@H]5OCC[C@H]54)nc(OCCc4ccccn4)n3)n2)cc1` [Compound 4, (3aR,6aR)-4-(6-(3-phenyl-1H-pyrazol-1-yl)-2-(2-(pyridin-2-yl)ethoxy)pyrimidin-4-yl)hexahydro-2H-furo[3,2-b]pyrrole]: the IC50 was 101 to 1000 nM.
With `COc1cccc(-c2ccn(-c3cc(N4CC[C@H]5OCC[C@H]54)nc(OCCO)n3)n2)c1` [Compound 5, 2-((4-((3aR,6aR)-hexahydro-4H-furo[3,2-b]pyrrol-4-yl)-6-(3-(3-methoxyphenyl)-1H-pyrazol-1-yl)pyrimidin-2-yl)oxy)ethan-1-ol] the figure was 101 to 1000 nM; with `COc1cccc(-c2ccn(-c3cc(N4CC[C@H]5OCC[C@H]54)nc(OCCc4scnc4C)n3)n2)c1` [Compound 6, (3aR,6aR)-4-(6-(3-(3-methoxyphenyl)-1H-pyrazol-1-yl)-2-(2-(4-methylthiazol-5-yl)ethoxy)pyrimidin-4-yl)hexahydro-2H-furo[3,2-b]pyrrole], 5 to 100 nM; with `COc1cccc(-c2ccn(-c3cc(N4CCOCC4)nc(OCCc4scnc4C)n3)n2)c1` [Compound 7, 4-(6-(3-(3-methoxyphenyl)-1H-pyrazol-1-yl)-2-(2-(4-methylthiazol-5-yl)ethoxy)pyrimidin-4-yl)morpholine], less than 5 nM.
With `COc1cccc(-c2ccn(-c3cc(N4CC[C@H]5OCC[C@H]54)nc(OCCC(O)CO)n3)n2)c1` (stereo partly drawn) [Compound 8, 4-((4-((3aR,6aR)-hexahydro-4H-furo[3,2-b]pyrrol-4-yl)-6-(3-(3-methoxyphenyl)-1H-pyrazol-1-yl)pyrimidin-2-yl)oxy)butane-1,2-diol] the figure was 5 to 100 nM.
As for `COc1cccc(-c2ccn(-c3cc(N4CCOCC4)nc(OCCC(O)CO)n3)n2)c1` (stereo not shown) [Compound 9, 4-((4-(3-(3-methoxyphenyl)-1H-pyrazol-1-yl)-6-morpholinopyrimidin-2-yl)oxy)butane-1,2-diol], the IC50 was less than 5 nM.
With `c1ccc(-c2cn(-c3cc(N4CCOCC4)nc(OCCc4ccccn4)n3)cn2)cc1` [Compound 10, 4-(6-(4-phenyl-1H-imidazol-1-yl)-2-(2-(pyridin-2-yl)ethoxy)pyrimidin-4-yl)morpholine] the figure was 1000 to 10000 nM.
With `Cc1cccc(-c2csc(-c3cc(N4CC[C@H]5OCC[C@H]54)nc(OCC4CCCO4)n3)n2)c1` (stereo partly drawn) [Compound 11, (3aR,6aR)-4-(2-((tetrahydrofuran-2-yl)methoxy)-6-(4-(m-tolyl)thiazol-2-yl)pyrimidin-4-yl)hexahydro-2H-furo[3,2-b]pyrrole] the figure was 101 to 1000 nM.
With `Cc1cccc(-c2csc(-c3cc(N4CCOCC4)nc(OCC4CCCO4)n3)n2)c1` (stereo not shown) [Compound 12, 4-(2-((tetrahydrofuran-2-yl)methoxy)-6-(4-(m-tolyl)thiazol-2-yl)pyrimidin-4-yl)morpholine] the figure was 5 to 100 nM; with `Cc1cccc(-n2ccc(-c3cc(N4CCOCC4)nc(OCC4CCCO4)n3)n2)c1` (stereo not shown) [Compound 13, 4-(2-((tetrahydrofuran-2-yl)methoxy)-6-(1-(m-tolyl)-1H-pyrazol-3-yl)pyrimidin-4-yl)morpholine], 5 to 100 nM.
In turn, `Cc1cccc(-c2ccn(-c3cc(N4CCCOCC4)nc(OCC4CCCO4)n3)n2)c1` (stereo not shown) [Compound 14, 4-(2-((tetrahydrofuran-2-yl)methoxy)-6-(3-(m-tolyl)-1H-pyrazol-1-yl)pyrimidin-4-yl)-1,4-oxazepane] had an IC50 of 101 to 1000 nM.
In turn, `COC1CCN(c2cc(-n3ccc(-c4cccc(C)c4)n3)nc(OCC3CCCO3)n2)C1` (stereo not shown) [Compound 15, 4-(3-methoxypyrrolidin-1-yl)-2-((tetrahydrofuran-2-yl)methoxy)-6-(3-(m-tolyl)-1H-pyrazol-1-yl)pyrimidine] showed an IC50 of 1000 to 10000 nM.
With `COc1cccc(-c2ccn(-c3cc(N4CC[C@H]5OCC[C@H]54)nc(OCCc4ccccn4)n3)n2)c1` [Compound 16, (3aR,6aR)-4-(6-(3-(3-methoxyphenyl)-1H-pyrazol-1-yl)-2-(2-(pyridin-2-yl)ethoxy)pyrimidin-4-yl)hexahydro-2H-furo[3,2-b]pyrrole] the figure was 101 to 1000 nM; with `Cc1cccc(-c2ccn(-c3cc(C4CCOC4)nc(OCC4CCCO4)n3)n2)c1` (stereo not shown) [Compound 17, 2-((tetrahydrofuran-2-yl)methoxy)-4-(tetrahydrofuran-3-yl)-6-(3-(m-tolyl)-1H-pyrazol-1-yl)pyrimidine], 5 to 100 nM.
With `Cc1cccc(-c2ccn(-c3cc(N4CC[C@H]5OCC[C@H]54)nc(CCc4ncccn4)n3)n2)c1` [Compound 19] the figure was 5 to 100 nM; with `Cc1cccc(-c2ccn(-c3cc(N4CCOCC4CO)nc(CCC4CCCO4)n3)n2)c1` (stereo not shown) [Compound 20, (4-(2-(2-(tetrahydrofuran-2-yl)ethyl)-6-(3-(m-tolyl)-1H-pyrazol-1-yl)pyrimidin-4-yl)morpholin-3-yl)methanol], 5 to 100 nM.
